Experimental data taken from EPA's CvTdb concentration-time database.

Legend:
Test in all cases: concentration in plasma after dosing
Mouse [1] = details: 2 h; dosed: 2-Hydroxy-4-methoxybenzophenone; 250 mg/kg; oral; Female; B6C3F1
Rat [2] = tested on: Rat
Mouse [3] = details: 0.25 h; dosed: 2-Hydroxy-4-methoxybenzophenone; 250 mg/kg; oral; Female; B6C3F1
Rat [4] = details: dosed: Nitrite, 40 mg/kg, oral, Female, F344

COc1ccc(C(=O)c2ccccc2)c(O)c1 [2-Hydroxy-4-methoxybenzophenone]
Details | concentration in plasma [ng/mL]
Mouse [1] | 832
Mouse [3] | 266

concentration in plasma [ng/mL], Rat [2], dosed: 2-Hydroxy-4-methoxybenzophenone, F344
Details | 0.25 h | 2 h | 2.5 min | 3 h | 4 h | 6 h | 10 h | 10 min
8 mg/kg, iv, Female | 1560 | 75.6 | – | – | 36.8 | – | – | 2540
8 mg/kg, iv, Male | 1860 | 99.2 | – | – | – | – | 70.1 | 72.5
100 mg/kg, oral, Female | 86.5 | – | – | 14.5 | 10.6 | – | – | 113
100 mg/kg, oral, Male | 171 | – | – | 17.3 | 42.4 | – | – | 140
250 mg/kg, oral, Female | 331 | – | – | 71.9 | 87.1 | – | – | 32.7
250 mg/kg, oral, Male | 82.8 | – | – | 54.6 | 65.2 | – | – | 19.4
500 mg/kg, oral, Female | 231 | – | 7.13 | – | 452 | – | 49.7 | 113
500 mg/kg, oral, Male | 614 | – | – | – | 450 | 225 | 65.2 | 116

O=N[O-] [Nitrite]
Rat [4]
Details | concentration in plasma [ng/mL]
1 h | 4300
2 h | 1800

concentration in plasma [ng/mL], Rat [2], dosed: Nitrite
Details | Female | Male
0.5 h, 20 mg/kg, iv, F344 | – | 2600
0.5 h, 40 mg/kg, oral, F344 | 6000 | 1900
0.5 h, 80 mg/kg, oral, F344 | 11300 | –
0.75 h, 20 mg/kg, iv, F344 | – | 2400
1 h, 20 mg/kg, iv, F344 | – | 2000
1 h, 40 mg/kg, oral, F344 | 2900 | 3400
1 h, 80 mg/kg, oral, F344 | 9700 | –
2 h, 40 mg/kg, oral, F344 | 2600 | –
2 h, 80 mg/kg, oral, F344 | 7500 | –
2 min, 20 mg/kg, iv, F344 | – | 14800
2 min, 40 mg/kg, oral, F344 | 3100 | –
2 min, 40 mg/kg, oral, Harlan Sprague-Dawley | 2200 | –
2 min, 80 mg/kg, oral, F344 | 8200 | –
4 h, 80 mg/kg, oral, F344 | 2400 | –
5 min, 20 mg/kg, iv, F344 | – | 3100
5 min, 40 mg/kg, oral, F344 | 4800 | –
5 min, 40 mg/kg, oral, Harlan Sprague-Dawley | 1700 | –
5 min, 80 mg/kg, oral, F344 | 12400 | –
6 h, 80 mg/kg, oral, F344 | 2000 | –
8 h, 80 mg/kg, oral, F344 | 1700 | –
10 h, 80 mg/kg, oral, F344 | 1700 | –
10 min, 20 mg/kg, iv, F344 | – | 4300
10 min, 40 mg/kg, oral, F344 | 5900 | 3400
10 min, 40 mg/kg, oral, Harlan Sprague-Dawley | 2500 | –
10 min, 80 mg/kg, oral, F344 | 7500 | –
20 min, 20 mg/kg, iv, F344 | – | 900
